pIC50: −log10 of the molar value. Structures can show the parent of a compound that is named as a salt. Where two headings read alike, the source gives them in different places. Bounds are passed on as bounds.

The experiment deals with HT-29 cells. Description: HT-29 necroptosis cell viability assay (TNF-α/SMAC mimetic/zVAD-FMK, CellTiter-Glo). The settings on record: Homo sapiens. Type of experiment: cell-based. Put shortly:
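Necroptosis was triggered by TNF-α (10 ng/ml), SMAC mimetic (6 μM) and zVAD-FMK (10 μM) in serum-free medium during 20 h compound exposure (10 concentrations, threefold steps) of HT-29 cells. IC50 from duplicate dose-responses uses CellTiter-Glo ATP luminescence as viability read-out.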

Where [1] appears, read: HT-29, HT-29 necroptosis cell viability, IC50 class symbols, read-out: Activity.
Where [2] appears, read: HT-29, HT-29 necroptosis cell viability assay, class symbols for IC50, read-out: Activity.
The mark [3] stands for this setting: HT-29 cells stimulated with TNF-α (10 ng/ml), SMAC mimetic (6 μM) and zVAD-FMK (10 μM), 20 hours, CellTiter-Glo ATP luminescence, geometric mean IC50 from 10 points, read-out: Activity.
[4] abbreviates: HT-29, HT-29 cells, necroptosis induced by TNF-α/SMAC mimetic/zVAD-FMK, CellTiter-Glo, read-out: Activity (IC50 class).

For `O=c1n(Cc2c(F)cccc2F)cnn1-c1ccc(Oc2cc(N3CC4(CCN4)C3)ncc2Cl)c(F)c1` [Example 411, 2-(4-((5-chloro-2-(1,6-diazaspiro[3.3]heptan-6-yl)pyridin-4-yl)oxy)-3-fluorophenyl)-4-(2,6-difluorobenzyl)-2,4-dihydro-3H-1,2,4-triazol-3-one hydrochloride], the pIC50 under setting [1] is greater than 7.00.

Take `Cc1nc(C#N)c(Oc2ccc(-n3ncn(Cc4c(F)cccc4F)c3=O)cc2F)s1` [Example 120, 5-(4-(4-(2,6-difluorobenzyl)-5-oxo-4,5-dihydro-1H-1,2,4-triazol-1-yl)-2-fluorophenoxy)-2-methylthiazole-4-carbonitrile]: the pIC50 under setting [2] is greater than 7.00. In the case of `Cc1cnc(N2CC(C)(C#N)C2)cc1Oc1ccc(-n2ncn(Cc3c(F)cccc3F)c2=O)cc1Cl` [Example 251, 1-(4-(2-chloro-4-(4-(2,6-difluorobenzyl)-5-oxo-4,5-dihydro-1H-1,2,4-triazol-1-yl)phenoxy)-5-methylpyridin-2-yl)-3-methylazetidine-3-carbonitrile], under setting [1], the pIC50 was greater than 7.00. `Cc1nc(C(=O)NCCN2CCOCC2)sc1Oc1ccc(-n2ncn(Cc3ccccc3F)c2=O)cc1F` [Example 25, 5-(2-fluoro-4-(4-(2-fluorobenzyl)-5-oxo-4,5-dihydro-1H-1,2,4-triazol-1-yl)phenoxy)-4-methyl-N-(2-morpholinoethyl)thiazole-2-carboxamide]: under setting [3], the pIC50 is greater than 7.00. With `Cc1nc(C(=O)NC2CCOCC2)sc1Oc1ccc(-n2ncn(Cc3ccccc3F)c2=O)cc1F` [Example 642, 5-[2-fluoro-4-[4-[(2-fluorophenyl)methyl]-5-oxo-1,2,4-triazol-1-yl]phenoxy]-4-methyl-N-tetrahydropyran-4-yl-thiazole-2-carboxamide], the pIC50 under setting [4] is greater than 7.00.

Turning to `Cc1nc(C2(O)CC2)sc1Oc1ccc(-n2ncn(Cc3c(F)cccc3F)c2=O)cc1F` [Example 582, 4-(2,6-difluorobenzyl)-2-(3-fluoro-4-((2-(1-hydroxycyclopropyl)-4-methylthiazol-5-yl)oxy)phenyl)-2,4-dihydro-3H-1,2,4-triazol-3-one], the pIC50 under setting [2] was greater than 7.00. On the same count and under the same terms, under `Cc1nc(C(=O)N2CC(C)(O)C2)sc1Oc1ccc(-n2ncn(Cc3c(F)cccc3F)c2=O)cc1F` [Example 597, 4-(2,6-difluorobenzyl)-2-(3-fluoro-4-((2-(3-hydroxy-3-methylazetidine-1-carbonyl)-4-methylthiazol-5-yl)oxy)phenyl)-2,4-dihydro-3H-1,2,4-triazol-3-one] stands greater than 7.00. Turning to `N#CC1CCN(c2cc(Oc3ccc(-n4ncn(Cc5c(F)cccc5F)c4=O)cc3)ccn2)C1` (stereo not drawn) [Example 384, 1-(4-(4-(4-(2,6-difluorobenzyl)-5-oxo-4,5-dihydro-1H-1,2,4-triazol-1-yl)phenoxy)pyridin-2-yl)pyrrolidine-3-carbonitrile], the pIC50 under setting [1] was greater than 7.00. As to `O=c1n(Cc2c(F)cccc2F)cnn1-c1ccc(Oc2cc(N3CC4(C3)CN(C3CC3)C4)ncc2F)c(F)c1` [Example 680, 2-(4-((2-(6-cyclopropyl-2,6-diazaspiro[3.3]heptan-2-yl)-5-fluoropyridin-4-yl)oxy)-3-fluorophenyl)-4-(2,6-difluorobenzyl)-2,4-dihydro-3H-1,2,4-triazol-3-one], the pIC50 under setting [4] was greater than 7.00.

As to `C[C@H]1[C@H](C#N)CN1c1cc(Oc2ccc(-n3ncn(Cc4c(F)cccc4F)c3=O)cc2F)c(Cl)cn1` [Example 233, (2S,3R)-1-(5-chloro-4-(4-(4-(2,6-difluorobenzyl)-5-oxo-4,5-dihydro-1H-1,2,4-triazol-1-yl)-2-fluorophenoxy)pyridin-2-yl)-2-methylazetidine-3-carbonitrile], the pIC50 under setting [1] was greater than 7.00. On the same count and under the same terms, for `O=c1n(Cc2c(F)cccc2F)cnn1-c1ccc(Oc2ccnc(NCC3CCOC3)c2)cc1` (stereo not drawn) [Example 259, 4-(2,6-difluorobenzyl)-2-(4-((2-(((tetrahydrofuran-3-yl)methyl)amino)pyridin-4-yl)oxy)phenyl)-2,4-dihydro-3H-1,2,4-triazol-3-one] the value was 6.00 to 7.00. For the compound `Cc1nc(N2CC(C)(N)C2)sc1Cc1ccc(-n2ncn(Cc3c(F)cccc3F)c2=O)cc1` [Example 509, 2-(4-((2-(3-amino-3-methylazetidin-1-yl)-4-methylthiazol-5-yl)methyl)phenyl)-4-(2,6-difluorobenzyl)-2,4-dihydro-3H-1,2,4-triazol-3-one], under setting [2], the pIC50 was greater than 7.00. Regarding `Cc1nc(C#N)sc1Oc1ncc(-n2ncn(Cc3c(F)cccc3F)c2=O)cc1Cl` [Example 653, 5-[[3-chloro-5-[4-[(2,6-difluorophenyl)methyl]-5-oxo-1,2,4-triazol-1-yl]-2-pyridyl]oxy]-4-methyl-thiazole-2-carbonitrile], the pIC50 under setting [4] is 6.00 to 7.00. Regarding `CC1C(C#N)CN1c1nccc(Oc2ccc(-n3ncn(Cc4c(F)cccc4F)c3=O)cc2)c1F` (stereo not drawn) [Example 357, 1-(4-(4-(4-(2,6-difluorobenzyl)-5-oxo-4,5-dihydro-1H-1,2,4-triazol-1-yl)phenoxy)-3-fluoropyridin-2-yl)-2-methylazetidine-3-carbonitrile], under setting [1], the pIC50 is greater than 7.00. With `Cc1nc(N2CC[C@@H]2CN)sc1Oc1ccc(-n2ncn(Cc3c(F)cccc3F)c2=O)cc1` [Example 70, (R)-2-(4-((2-(2-(aminomethyl)azetidin-1-yl)-4-methylthiazol-5-yl)oxy)phenyl)-4-(2,6-difluorobenzyl)-2,4-dihydro-3H-1,2,4-triazol-3-one], the pIC50 under setting [3] was greater than 7.00. As for `Cc1nc(Oc2ccc(-n3ncn(Cc4c(F)cccc4F)c3=O)c(F)c2)n(C)c1C(N)=O` [Example 115, 2-(4-(4-(2,6-difluorobenzyl)-5-oxo-4,5-dihydro-1H-1,2,4-triazol-1-yl)-3-fluorophenoxy)-1,4-dimethyl-1H-imidazole-5-carboxamide], under setting [2], the pIC50 was 5.00 to 6.00.

For the compound `CC1(CN)CN(c2cc(Oc3ccc(-n4ncn(Cc5c(F)cccc5F)c4=O)cc3F)c(F)cn2)C1` [Example 555, 2-(4-((2-(3-(aminomethyl)-3-methylazetidin-1-yl)-5-fluoropyridin-4-yl)oxy)-3-fluorophenyl)-4-(2,6-difluorobenzyl)-2,4-dihydro-3H-1,2,4-triazol-3-one], under setting [2], the pIC50 was greater than 7.00. For `COC(=O)c1nc(Oc2ccc(-n3ncn(Cc4c(F)cccc4F)c3=O)cc2)sc1C` [Example 92, methyl 2-(4-(4-(2,6-difluorobenzyl)-5-oxo-4,5-dihydro-1H-1,2,4-triazol-1-yl)phenoxy)-5-methylthiazole-4-carboxylate], under setting [3], the pIC50 is 6.00 to 7.00.

For `Cc1nc(C(=O)N2CC(C)(N)C2)sc1Oc1ccc(-n2ncn(Cc3ccccc3F)c2=O)cc1F` [Example 591, 2-(4-((2-(3-amino-3-methylazetidine-1-carbonyl)-4-methylthiazol-5-yl)oxy)-3-fluorophenyl)-4-(2-fluorobenzyl)-2,4-dihydro-3H-1,2,4-triazol-3-one], the pIC50 under setting [2] is greater than 7.00. For the compound `O=c1n(Cc2c(F)cccc2F)cnn1-c1ccc(Oc2ccnc(N3CCC4(COC4)C3)c2)cc1` [Example 333, 2-(4-((2-(2-oxa-6-azaspiro[3.4]octan-6-yl)pyridin-4-yl)oxy)phenyl)-4-(2,6-difluorobenzyl)-2,4-dihydro-3H-1,2,4-triazol-3-one], the pIC50 under setting [1] was greater than 7.00. With `CC(C)(C)CNC(=O)c1cc(Oc2ccc(-n3ncn(Cc4c(F)cccc4F)c3=O)cc2)ccn1` [Example 660, 4-(4-(4-(2,6-difluorobenzyl)-5-oxo-4,5-dihydro-1H-1,2,4-triazol-1-yl)phenoxy)-N-neopentylpicolinamide], the pIC50 under setting [4] is 6.00 to 7.00.

The values above are taken from patent US20250179061A1 (SIRONAX LTD., priority 2022, published 2025).
